Target: T1, CDK9 (Homo sapiens, UniProt P50750)
T1 construct: with CyclinT1
Test: IMAP fluorescence polarisation kinase assay with CDK9/CyclinT1 (TAMRA-Rbtide, […] ATP); radiometric selectivity panel of […] CDK/cyclin pairs
Type: biochemical

T1 sequence (P50750 whole entry): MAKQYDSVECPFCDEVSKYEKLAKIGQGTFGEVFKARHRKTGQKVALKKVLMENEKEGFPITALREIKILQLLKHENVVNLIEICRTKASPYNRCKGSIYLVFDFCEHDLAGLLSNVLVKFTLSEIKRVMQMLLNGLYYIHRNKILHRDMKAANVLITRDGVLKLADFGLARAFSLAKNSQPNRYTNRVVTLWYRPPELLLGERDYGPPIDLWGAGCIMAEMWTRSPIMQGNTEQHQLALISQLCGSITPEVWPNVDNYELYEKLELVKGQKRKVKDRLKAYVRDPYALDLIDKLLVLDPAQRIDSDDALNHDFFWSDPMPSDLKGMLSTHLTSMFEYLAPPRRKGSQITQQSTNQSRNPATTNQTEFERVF
T1 sequence (O60563 whole entry partner): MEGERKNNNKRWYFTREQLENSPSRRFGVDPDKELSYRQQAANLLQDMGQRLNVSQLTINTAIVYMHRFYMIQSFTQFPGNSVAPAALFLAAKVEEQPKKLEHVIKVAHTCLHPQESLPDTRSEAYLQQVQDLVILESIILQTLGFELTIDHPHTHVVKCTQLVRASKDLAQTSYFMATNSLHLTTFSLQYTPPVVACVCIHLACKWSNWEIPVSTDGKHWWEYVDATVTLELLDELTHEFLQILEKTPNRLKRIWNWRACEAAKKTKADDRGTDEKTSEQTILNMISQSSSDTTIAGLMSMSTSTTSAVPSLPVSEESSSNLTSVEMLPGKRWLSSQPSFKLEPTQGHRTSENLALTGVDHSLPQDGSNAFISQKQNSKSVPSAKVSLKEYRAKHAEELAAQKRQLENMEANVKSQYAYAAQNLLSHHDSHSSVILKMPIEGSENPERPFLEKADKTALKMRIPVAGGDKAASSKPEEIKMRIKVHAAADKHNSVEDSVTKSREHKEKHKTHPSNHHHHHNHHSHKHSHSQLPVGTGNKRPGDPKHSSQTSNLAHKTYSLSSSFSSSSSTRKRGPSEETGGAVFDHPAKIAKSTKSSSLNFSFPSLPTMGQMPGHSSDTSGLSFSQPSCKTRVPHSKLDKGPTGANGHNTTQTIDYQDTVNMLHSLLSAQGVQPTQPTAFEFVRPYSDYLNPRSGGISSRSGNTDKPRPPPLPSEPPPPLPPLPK

In the case of `COc1ccccc1-c1ncnc(Nc2cccc(Cn3cnc4ccccc43)c2)n1` [VC-1, VCC972839:01], the IC50 is reported as 7 nM.

Source: article PMC11106072, “CDK9 inhibition as an effective therapy for small cell lung cancer” (Cell Death & Disease, 2024)
